Source: patent publication US20100204202A1, “DRUG FOR ALLEVIATING MOTOR COMPLICATIONS OR PSYCHIATRIC SYMPTOMS OF PARKINSON'S DISEASE” (Asubio Pharma Co., Ltd., priority 2007, published 2010)
Where a name gives a salt, the structure may show the parent alone. Read-outs that look alike come from different tables or passages of the source.

Tests used:
[1] = target: T1, human dopamine D2L receptors (Homo sapiens, UniProt P14416); assay: Binding affinity test on human dopamine D2L receptors ([3H]spiperone, CHO membranes); conditions: for Ki: Dopamine D2L; for binding affinity (in words): human dopamine D2L receptors
T1 construct: expressed in transfected cells; host or cells: CHO
Protocol: For the test, membrane specimens prepared from Chinese hamster ovary (CHO) cells expressing human dopamine D2L receptors were used. To a 50 mM Tris-HCl (pH 7.4) buffer containing 1.4 mM ascorbic acid, 0.001% BSA, and 150 mM NaCl, [^3H] spiperone (final concentration 0.16 nM), the test sample solution and a membrane specimen were added. The reaction solution was allowed to react at 25° C. for 2 hours, then the reaction solution was filtered with a cell harvester, the filtered filter paper was transferred to a measurement vial, a liquid scintillator was added and the receptor bond radioactivity remaining on the filter paper was determined by a liquid scintillation counter. The nonspecific bonds were defined as the amount of bonds in the presence of 10 μM haloperidol.
The following formula was used to calculate the binding inhibition rate:
[amount of [^3H] spiperone bonds in the presence of 10 μM haloperidol]}/{[amount of [^3H] spiperone bonds in the absence of test sample]−[amount of [^3H] spiperone bonds in the presence of 10 μM haloperidol]}
From the binding inhibition rate, a regression formula was used to calculate the 50% inhibition concentration. Furthermore, the inhibition constant (Ki) was calculated.

[2] = target: T2, human dopamine D3 receptors (Homo sapiens, UniProt P35462); assay: Binding affinity test on human dopamine D3 receptors ([3H]spiperone, CHO membranes); conditions: for binding affinity (in words): human dopamine D3 receptors
T2 construct: expressed in transfected cells; host or cells: CHO
Protocol: For the test, membrane specimens prepared from Chinese hamster ovary (CHO) cells expressing human dopamine D3 receptors were used. To a 50 mM Tris-HCl buffer (pH 7.4) containing 1.4 mM ascorbic acid, 0.001% BSA, and 150 mM NaCl, [^3H] spiperone (final concentration 0.7 nM), the test sample solution and a membrane specimens were added. The reaction solution was allowed to react at 37° C. for 2 hours, then the reaction solution was filtered with a cell harvester, the filtered filter paper was transferred to a measurement vial, a liquid scintillator was added and the receptor bond radioactivity remaining on the filter paper was determined by a liquid scintillation counter.
The following formula was used to calculate the binding inhibition rate: […]
Furthermore, the inhibition constant (Ki) was calculated.

[3] = target: T1, human dopamine D2L receptors; assay: Agonist/antagonist assay, [35S]GTPgammaS binding, human dopamine D2L receptors; format: biochemical; conditions: for EC50 / Emax / IC50: Dopamine D2L; for antagonist activity (in words): human dopamine D2L receptors
Protocol: (§1) For the tests, membrane specimens prepared from Chinese hamster ovary (CHO-K1) cells expressing human serotonin 1A receptors, Chinese hamster ovary (CHO) cells expressing human dopamine D2L receptors, Chinese hamster ovary (CHO) cells expressing human dopamine D2S receptors and Chinese hamster ovary (CHO) cells expressing human dopamine D3 receptors were used. In the agonist assays, for the serotonin 1A receptors, [^35S] GTPγS (final concentration 0.1 nM), a GDP solution (final concentration 3 μM), the test sample solution and a membrane specimen were added to a 20 mM Hepes-NaOH buffer (pH 7.4) containing 100 mM NaCl, 3 mM MgCl2 and 10 μg/mL saponin and allowed to react at 25° C. for 30 minutes. Further, for the dopamine (D2L, D2S and D3) receptors, [^35S] GTPγS (i.e., final concentration 0.1 nM), a GDP solution (final concentration 3 μM), the test sample solution and a membrane specimen were added to a 20 mM Hepes-NaOH buffer (pH 7.4) containing 100 mM NaCl, 10 mM MgCl2, 1 mM DTT and 1 mM EDTA and allowed to react at 30° C. for 15 minutes (in the case of D2L receptors) or for 30 minutes (in the cases of D2S and D3 receptors). Further, in the antagonist assays, except for adding to the reaction solutions 10 μM 5-carboxamide tryptamine (5-CT) (in the case of serotonin 1A receptors), 3 μM dopamine (in the cases of D2L and D2S receptors), or 0.1 μM dopamine (in the case of D3 receptors), operations were performed similar to the agonistic tests. After the end of the reaction, the reaction solution was filtered with a cell harvester, the filtered filter paper was transferred to a measurement vial, a liquid scintillator was added, and the radioactivity of the [^35S] GTPγS remaining on the filter paper was determined by a liquid scintillation counter. The human serotonin 1A receptor and human dopamine (D2L, D2S, and D3) receptor agonist/antagonist activities of the test sample were expressed as the rates of increase, when making the increase in [^35S] GTPγS bonds due to 10 μM 5-CT (in the case of serotonin 1A receptors), 3 μM dopamine (in the cases of D2L and D2S receptors), or 0.1 μM dopamine (in the case of D3 receptors) 100%. From the bond increasing rate, a regression formula was used to calculate the 50% reaction concentration (EC50) and 50% inhibition concentration (IC50).

[4] = target: T3, human dopamine D2S receptors (Homo sapiens, UniProt P14416); assay: Agonist/antagonist assay, [35S]GTPgammaS binding, human dopamine D2S receptors; format: biochemical; conditions: for EC50 / Emax / IC50: Dopamine D2S; for antagonist activity (in words): human dopamine D2S receptors
T3 construct: expressed in transfected cells; host or cells: CHO
Protocol: as §1

[5] = 3 μM dopamine = 100%, read-out: Agonist assay Emax
[6] = with 3 μM dopamine, read-out: Antagonist assay Emax

T1 sequence (P14416 whole entry): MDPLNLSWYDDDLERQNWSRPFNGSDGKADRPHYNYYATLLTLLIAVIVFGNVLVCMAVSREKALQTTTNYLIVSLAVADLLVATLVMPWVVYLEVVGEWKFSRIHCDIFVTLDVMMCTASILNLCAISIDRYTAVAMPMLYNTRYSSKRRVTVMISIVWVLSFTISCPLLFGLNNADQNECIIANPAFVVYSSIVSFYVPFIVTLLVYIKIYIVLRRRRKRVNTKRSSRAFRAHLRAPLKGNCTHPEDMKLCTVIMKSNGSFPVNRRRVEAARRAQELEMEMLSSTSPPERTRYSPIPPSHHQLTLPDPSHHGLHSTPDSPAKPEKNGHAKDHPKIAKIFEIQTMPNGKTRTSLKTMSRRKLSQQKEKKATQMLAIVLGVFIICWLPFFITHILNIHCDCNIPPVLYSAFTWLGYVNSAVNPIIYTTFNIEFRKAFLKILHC
T2 sequence (P35462 whole entry): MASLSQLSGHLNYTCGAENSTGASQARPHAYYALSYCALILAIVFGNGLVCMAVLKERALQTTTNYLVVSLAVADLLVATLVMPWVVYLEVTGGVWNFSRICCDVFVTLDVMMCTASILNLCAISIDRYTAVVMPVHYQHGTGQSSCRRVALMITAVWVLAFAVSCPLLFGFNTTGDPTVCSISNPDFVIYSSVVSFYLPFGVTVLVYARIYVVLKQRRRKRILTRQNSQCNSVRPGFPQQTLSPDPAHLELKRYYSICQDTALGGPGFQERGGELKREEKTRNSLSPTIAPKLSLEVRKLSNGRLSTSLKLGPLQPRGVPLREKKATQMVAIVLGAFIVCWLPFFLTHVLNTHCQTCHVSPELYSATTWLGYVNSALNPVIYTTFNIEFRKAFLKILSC
T3 sequence (P14416 1-414 isoform P14416-2): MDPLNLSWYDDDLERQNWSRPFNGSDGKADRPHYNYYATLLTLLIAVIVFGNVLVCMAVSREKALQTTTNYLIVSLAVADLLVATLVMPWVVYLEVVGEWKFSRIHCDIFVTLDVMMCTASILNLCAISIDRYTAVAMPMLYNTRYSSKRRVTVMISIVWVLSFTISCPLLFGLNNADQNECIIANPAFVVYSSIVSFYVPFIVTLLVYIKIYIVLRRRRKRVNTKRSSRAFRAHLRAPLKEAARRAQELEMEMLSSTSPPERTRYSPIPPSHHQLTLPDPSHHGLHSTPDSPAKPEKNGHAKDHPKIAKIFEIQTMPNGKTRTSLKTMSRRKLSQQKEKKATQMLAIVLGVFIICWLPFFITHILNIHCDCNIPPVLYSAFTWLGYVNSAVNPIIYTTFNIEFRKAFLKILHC

Ki [1] [nM]	binding affinity (in words) [1]	binding affinity (in words) [2]	EC50 [3] [nM]	Emax [3, 5] [%]	IC50 ([3]; with 3 μM dopamine) [nM]	Emax [3, 6] [%]	antagonist activity (in words) [3]	EC50 [4] [nM]	Emax [4, 5] [%]	IC50 ([4]; with 3 μM dopamine) [nM]	Emax [4, 6] [%]	antagonist activity (in words) [4]	Ki [2] [nM]	SMILES	Ki ([2]; Dopamine D3, read-out: Ki) [nM]
5.42	comparatively strong binding affinity	comparatively strong binding affinity	> 500	18	72.9	75	antagonist activity	> 500	27	17.9	69	antagonist activity		Cl.Cl.O=c1[nH]c2cccc(C3CCCN(Cc4cncc(-c5ccc(F)cc5)c4)C3)c2o1 (stereo not shown) [7-(1-{[5-(4-fluorophenyl)pyridin-3-yl]methyl}piperidin-3-yl)-1,3-benzoxazol-2(3H)-one dihydrochloride]	9.07
3.29	comparatively strong binding affinity	comparatively strong binding affinity	> 500	2	13.3	101	antagonist activity	> 500	5	66.7	74	antagonist activity	3.48	Cl.Cl.Fc1ccc(-c2cncc(CNC[C@H]3CCc4ccccc4O3)c2)cc1 [Sarizotan, 1-[(2R)-3,4-dihydro-2H-chromen-2-yl]-N-{[5-(4-fluorophenyl)pyridin-3-yl]methyl}methanamine dihydrochloride]	

SMILES	Ki [1] [nM]	binding affinity (in words) [1]	binding affinity (in words) [2]	EC50 [3] [nM]	Emax [3, 5] [%]	IC50 ([3]; with 3 μM dopamine) [nM]	Emax [3, 6] [%]	antagonist activity (in words) [3]	EC50 [4] [nM]	Emax [4, 5] [%]	IC50 ([4]; with 3 μM dopamine) [nM]	Emax [4, 6] [%]	antagonist activity (in words) [4]	Ki [2] [nM]	Ki ([2]; Dopamine D3, read-out: Ki) [nM]
O=C1c2ccccc2OC=C(Cl)N1CCCCN1CC=C(c2ccccn2)CC1 [SUN N4057, 3-chloro-4,5-dihydro-4-{4-[4-(2-pyridyl)-1,2,3,6-tetrahydropyridin-1-yl]butyl}-1,4-benzoxazepin-5-one.dihydrochloride-dihydrate]	161			> 500	27	> 500	47	does not have an antagonist action	> 500	41	> 500	25	does not have an antagonist action		42.8
